Measurements from ChEMBL document CHEMBL1764967, “Introduction of aromatic group on 4'-OH of α-GalCer manipulated NKT cell cytokine production” (Bioorg Med Chem, 2011).
The source made the active and inactive calls.

Tests used:
Mus musculus [1] = experiment: Immunostimulatory activity in C57BL/6 mouse assessed as maximum INF-gamma level in serum at 10 ug/ml, iv after 12 hrs by ELISA; type: functional, organism-based
Mus musculus [2] = species: Mus musculus; experiment: Immunostimulatory activity in mouse DN3A4-1.2 hybridoma cells expressing TCR assessed as IL2 level after 24 to 48 hrs by ELISA; type: functional
Splenocyte [3] = experiment: Immunostimulatory activity in C57BL/6 mouse Splenocytes assessed as release of IL4 at 1000 ng/ml after 72 hrs by ELISA; type: functional, cell-based
Mus musculus [4] = experiment: Immunostimulatory activity in C57BL/6 mouse assessed as INF-gamma level in serum at 10 ug/ml, iv after 2 to 24 hrs by ELISA; type: functional, organism-based; conditions: TDE = time-dependent effect
Mus musculus [5] = experiment: Immunostimulatory activity in C57BL/6 mouse assessed as maximum IL4 level in serum at 10 ug/ml, iv after 4 hrs by ELISA; type: functional, organism-based
Mus musculus [6] = experiment: Immunostimulatory activity in C57BL/6 mouse assessed as IL4 level in serum at 10 ug/ml, iv after 2 to 24 hrs by ELISA; type: functional, organism-based; conditions: TDE = time-dependent effect
Mus musculus [7] = species: Mus musculus; experiment: Immunostimulatory activity in mouse DN3A4-1.4 hybridoma cells expressing TCR assessed as IL2 level after 24 to 48 hrs by ELISA; type: functional
Mus musculus [8] = species: Mus musculus; experiment: Immunostimulatory activity in mouse N38.2H4 hybridoma cells expressing TCR assessed as IL2 level after 24 to 48 hrs by ELISA; type: functional
N38.2H4 = experiment: Immunostimulatory activity in mouse N38.2H4 cells expressing TCR assessed as IL2 level after 24 by ELISA in presence of mouse CD1d protein; type: functional, cell-based
Mus musculus [9] = species: Mus musculus; experiment: Immunostimulatory activity in mouse DN3A4-1.2 cells expressing TCR assessed as IL2 level after 24 hrs by ELISA in presence of mouse CD1d protein; type: functional, cell-based
Splenocyte [10] = experiment: Immunostimulatory activity in C57BL/6 mouse Splenocytes assessed as release of IL4 after 72 hrs by ELISA; type: functional, cell-based
Mus musculus [11] = experiment: Immunostimulatory activity in C57BL/6 mouse assessed as maximum INF-gamma level in serum at 10 ug/ml, iv after 2 hrs by ELISA; type: functional, organism-based
Mus musculus [12] = experiment: Immunostimulatory activity in C57BL/6 mouse assessed as maximum IL4 level in serum at 10 ug/ml, iv after 2 hrs by ELISA; type: functional, organism-based

Measured: Activity

CCCCCCCCCCCCCCCCCCCCCCCCCC(=O)N[C@@H](CO[C@H]1O[C@H](CO)[C@H](OCCc2ccccc2)[C@H](O)[C@H]1O)[C@H](O)[C@H](O)CCCCCCCCCCCCCC
active: Mus musculus [1] | Mus musculus [2] | Splenocyte [3] | Mus musculus [4] tde | Mus musculus [5] | Mus musculus [6] tde | Mus musculus [7] | Mus musculus [8]

CCCCCCCCCCCCCCCCCCCCCCCCCC(=O)N[C@@H](CO[C@H]1O[C@H](CO)[C@H](OC(=O)c2ccccc2)[C@H](O)[C@H]1O)[C@H](O)[C@H](O)CCCCCCCCCCCCCC
active: N38.2H4 | Mus musculus [2] | Splenocyte [3] | Mus musculus [9] | Mus musculus [4] tde | Mus musculus [5] | Mus musculus [6] tde | Mus musculus [7] | Mus musculus [8]

CCCCCCCCCCCCCCCCCCCCCCCCCC(=O)N[C@@H](CO[C@H]1O[C@H](CO)[C@H](OCCCc2ccccc2)[C@H](O)[C@H]1O)[C@H](O)[C@H](O)CCCCCCCCCCCCCC
active: N38.2H4 | Splenocyte [10] | Mus musculus [1] | Mus musculus [2] | Mus musculus [9] | Mus musculus [4] tde | Mus musculus [6] tde | Mus musculus [7] | Mus musculus [8] | Mus musculus [11] | Mus musculus [12]

CCCCCCCCCCCCCCCCCCCCCCCCCC(=O)N[C@@H](CO[C@H]1O[C@H](CO)[C@H](O)[C@H](O)[C@H]1O)[C@H](O)[C@H](O)CCCCCCCCCCCCCC
active: N38.2H4 | Mus musculus [9] | Mus musculus [4] tde | Mus musculus [6] tde | Mus musculus [11] | Mus musculus [12]
